From patent US5576438A, “Isoserine derivatives and their use as leukotriene antagonists” (Leo Pharmaceutical Products Ltd. A/S (L.o slashed.vens …, priority 1992, dated 1996) come the findings set out here.

Counter-ions that a name gives are not always drawn. Like-named read-outs stand apart in the source and are kept apart here.

The assay has as its target T1, LTD4 receptor (Cavia porcellus, UniProt Q2NNR5).
T1 construct: guinea-pig lung membranes; from tissue; host or cells: guinea-pig lung membranes
T1 sequence (Q2NNR5 1-340): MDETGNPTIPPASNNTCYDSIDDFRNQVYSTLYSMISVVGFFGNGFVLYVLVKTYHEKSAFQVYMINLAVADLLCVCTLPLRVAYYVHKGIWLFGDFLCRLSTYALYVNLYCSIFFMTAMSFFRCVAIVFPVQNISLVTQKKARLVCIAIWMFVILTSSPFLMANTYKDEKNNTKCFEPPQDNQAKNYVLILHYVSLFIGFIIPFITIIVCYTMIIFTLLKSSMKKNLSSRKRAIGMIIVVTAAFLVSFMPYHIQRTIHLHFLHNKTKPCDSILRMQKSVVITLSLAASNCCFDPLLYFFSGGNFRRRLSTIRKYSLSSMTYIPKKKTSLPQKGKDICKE
Put plainly: [3H]LTD4 competition binding to guinea-pig lung membranes. Particulars: negative logarithm of molar concentration, read-out: pIC50 for [3H]LTD4 binding (converted). The source says:
It is of importance to investigate the receptor binding properties of leukotriene antagonists in relation to their inhibition of smooth muscle contraction. Receptor binding studies may be performed with guinea-pig lung membranes in a direct competition assay between a leukotriene antagonist and [^3 H]LTD4 for binding to the LTD4 receptor ^10,^11. […] These values indicate that the affinities of the compounds for the LTD4 receptor are very high, also in the presence of albumin.

Setting [1] is: presence of 0.1% human serum albumin.

With `O=C(O)[C@H](O)[C@H](Nc1cccc(/C=C/c2ccc3ccc(Cl)cc3n2)c1)c1ccccc1` (relative stereo) [Example 6, E-(2R,3R;2S,3S)-N-3-[2-(7-chloroquinolyl)-2-ethenyl]-phenyl-3-phenyl isoserine, sodium salt], the IC50 was 2 nM (absence of human serum albumin) and 6.31 nM under setting [1].
Turning to `O=C(O)[C@H](O)[C@H](Nc1cccc(/C=C/c2ccc3ccccc3n2)c1)c1ccccc1` (relative stereo) [Example 17, E-(2R,3R;2S,3S)-3-phenyl-N-3-[(2-quinolyl)-2-ethenyl]-phenyl isoserine, sodium salt], the IC50 was 2.51 nM (absence of human serum albumin) and 20 nM under setting [1].
